Laboratory results: publication PMC6510487 (Chemosensors (Basel, Switzerland), 2018)
Ends that are not written are not given here.

Experiments:
human SIRPalpha [1] = assay: Microscale thermophoresis binding of CD47 mimetic probe to hSIRPalpha; conditions: 150 μM probe, 50 μM human SIRPalpha
human SIRPalpha [2] = assay: Fluorescence response of CD47 mimetic probe upon hSIRPalpha binding; conditions: 150 μM probe, 50 μM human SIRPalpha

**Q.** EVTELTREGE [CD47 mimetic probe] was tested. Which “binding to hSIRPalpha by MST” value (human SIRPalpha [1]) did it give?
**A.** The value was “could bind to hSIRPalpha”.

**Q.** What about the “fluorescence enhancement upon target binding to hSIRPalpha” value (human SIRPalpha [2]) of the same sequence?
**A.** Its value is “did not exhibit fluorescence enhancement”.
